Results taken from US4045433A, “1,3,4,5-Tetrahydro-2H-1,4-benzodiazepin-2-ones” (priority 1974, dated 1977).
“Also recorded” adds a separate entry of the source. Like-named read-outs stand apart in the source and are kept apart here.

Tests used:
[1] = system: CFLP mice; assay: Maximum electroshock (anti-electroshock activity); type: in vivo; conditions: 1 hour before test; for ED50: Mus musculus, 1 h
Description: 2. Maximum electroshock stimulus (100 Hz, 30 V, 0.2 sec.) was applied according to the method of Swinyard et al. (Swinyard E. A., Brown W. C., Goodman, L. S.: J. Pharmacol. 106, 319 (1952)). The animals showing no tonix extension on the hind limb upon stimulus were considered as protected.

[2] = Acute toxicity; type: in vivo, CFLP mice; conditions: mouse, in vivo, death rate observed for one week
[3] = Rotarod test (muscle incoordination and ataxia); type: in vivo, CFLP mice; conditions: mouse, in vivo, 1 hour before test
Experimental: (§1) a. Rotarod test: The test was carried out according to the method of Kinnard and Carr (Brit. J. Pharmacol. Exp. Ther. 121, 354 (1957)). […] The ED50 values were calculated from the percentage of the animals falling down within 120 sec.

[4] = system: CFLP mice; assay: Hexobarbital narcosis potentiating effect; type: in vivo; conditions: screen test, i.p., 1 hour before hexobarbital 60 mg./kg. into tail vein; change of sleeping period related to controls
Experimental: The hexobarbital narcosis potentiating effect was determined by the method of Rumke et al. (Arch. Int. […]. The change of sleeping period was expressed in percent related to the controls.

[5] = system: CFLP mice; assay: Antimetrazole activity (protection from tonic extensor spasm); type: in vivo; conditions: for ED50: Mus musculus, 1 h
Experimental: 1. The first series of examinations was carried out according to the method of Everett and Richards (Everett G. M., Richards R. K.: J. Pharm. Exp. Ther. 81, 402 (1944)). 125 mg./kg. of metrazole were administered subcutaneously to the test animals. 1 hour after the administration the animals protected from tonic extensor spasm and the surviving animals were counted.

[6] = system: CFLP mice; assay: Narcosis potentiating effect (sodium barbiturate); type: in vivo; conditions: for ED50: Mus musculus, po, 1 hour before sodium barbiturate 100 mg./kg. i.p.; for Narcosis potentiation ED50 : Antimetrazole ED50: ratio (3) of Table 2, p.o.
[7] = system: CFLP mice; assay: Rotarod test (muscle incoordination and ataxia); type: in vivo; conditions: for Rotarod ED50 : Antimetrazole ED50: ratio (1) of Table 2, p.o.
Experimental: as §1

[8] = system: CFLP mice; assay: Antagonism of strychnine spasm; type: in vivo; conditions: for ED50: Mus musculus, po, 1 h, read-out: Antistrychnine activity ED50; for Antistrychnine ED50 : Antimetrazole: ratio (2) of Table 2, p.o.
Experimental: Tonic extensor spasm was produced by administering an intraperitoneal dosage of 2 mg./kg. of strychnine to the animals (Kerley T. L., Richards A. G., Begley, R. W., Abren, B. E. and Weaver, L. C: J. Pharmacol. Exp. Ther. 132, 360 (1961)). The animals showing no spasm were considered as protected.

[9] = system: CFLP mice; assay: Disappearance of righting reflex; type: in vivo; conditions: Mus musculus, po
[10] = Traction test (muscle incoordination and ataxia); design: species or system CFLP mice; conditions: mouse, in vivo, po, 1 hour before test; read-out: Traction test ED50
Experimental: b. Traction test: The test was carried out according to the method of Theobald et al. (Arch. int. Pharmacodyn. 148, 560 (1964)). The two anterior limbs of the test animals were placed onto a horizontal rod so as to let the animals clutch the rod. […] The ED50 values were calculated from the percentage of the animals showing negative response.

[11] = system: CFLP mice; assay: Acute toxicity; type: in vivo
[12] = system: CFLP mice; assay: Sedative and muscle relaxant effects (overall assessment); type: in vivo; conditions: in words
[13] = ip, screen test, i.p., read-out: Anti-electroshock ED50 ip.
[14] = ip, screen test, i.p., read-out: Rotarod ED50
[15] = ip, screen test, i.p., 1 hour before test, metrazole 125 mg./kg. s.c., read-out: Antimetrazole ED50
[16] = po, p.o., 100 Hz, 30 V, 0.2 sec., read-out: Anti-electroshock activity ED50
[17] = po, read-out: Acute toxicity (LD50)
[18] = po, 12/min., 120 sec., read-out: Rotarod test ED50
[19] = po, p.o., 1 hour before test, metrazole 125 mg./kg. s.c., 95% confidence limit in next line, read-out: Antimetrazole activity ED50

SMILES	ED50 [1, 13] [mg/kg]	LD50 at 168 h ([2]; ip, read-out: LD50 i.p.) [mg/kg]	Hexobarbital potentiation, % [4] [%]	ED50 [5, 15] [mg/kg]	further results
NC(=O)N1CC(=O)Nc2ccc(Cl)cc2C1c1ccccc1 (stereo not shown) [Example 13, 4-Carbamoyl-5-phenyl-7-chloro-1,3,4,5-tetrahydro-2H-1,4-benzodiazepine-2-on]	14	367	89	4.9	TD50 at 1 h [3, 14]: 13.5 mg/kg
CNC(=O)N1CC(=O)Nc2ccc(Cl)cc2C1c1ccccc1 (stereo not shown) [Example 16, 4-Methylcarbamoyl-5-phenyl-7-chloro-1,3,4,5-tetrahydro-2H-1,4-benzodiazepine-2-one]	14	800	104	4.1	–
CNC1=Nc2ccc(Cl)cc2C(c2ccccc2)=[N+]([O-])C1 [Chlorodiazepoxide, reference compound]	–	–	–	–	ED50 [6]: 8.1 mg/kg; Narcosis potentiation ED50 : Antimetrazole ED50 [6]: 3.3; ED50 [1, 16]: 23.5 mg/kg; LD50 at 168 h [2, 17]: 850 mg/kg; TD50 at 1 h [3, 18]: 12.2 mg/kg; Rotarod ED50 : Antimetrazole ED50 [7]: 4.9; ED50 [8]: 28.4 mg/kg; Antistrychnine ED50 : Antimetrazole [8]: 11.5; ED50 [5, 19]: 2.47 mg/kg; ED50 [9]: 436 mg/kg; TD50 at 1 h [10]: 31.2 mg/kg
CCOC(=O)N1CC(=O)Nc2ccc([N+](=O)[O-])cc2C1c1ccccc1 (stereo not shown) [Example 2, 4-Ethoxycarbonyl-5-phenyl-7-nitro-1,3,4,5-tetrahydro-2H-1,4-benzodiazepine-2-one]	14	> 1600	168	12.5	–
CNC(=O)N1CC(=O)Nc2ccccc2C1c1ccccc1 (stereo not shown) [Example 15, 4-Methylcarbamoyl-5-phenyl-1,3,4,5-tetrahydro-2H-1,4-benzodiazepine-2-one]	20	> 500	93	20	–
CN1C(=O)CN=C(c2ccccc2)c2cc(Cl)ccc21 [Diazepam]	–	–	–	–	ED50 [6]: 3.9 mg/kg; Narcosis potentiation ED50 : Antimetrazole ED50 [6]: 5.2; ED50 [1, 16]: 8.29 mg/kg; Rotarod ED50 : Antimetrazole ED50 [7]: 4.3; ED50 [8]: 5.71 mg/kg; Antistrychnine ED50 : Antimetrazole [8]: 7.6; ED50 [5, 19]: 0.75 mg/kg; ED50 [9]: 238 mg/kg
CC(NC(=O)N1CC(=O)N(C)c2ccc(Cl)cc2C1c1ccccc1)c1ccccc1 (stereo not shown) [Example 24, 1-Methyl-4-(1-methyl-benzylcarbamoyl)-5-phenyl-7-chloro-1,3,4,5-tetrahydro-2H-1,4-benzodiazepine-2-one]	20	271	96	13.5	–
CN1C(=O)CN(C(=O)c2ccccc2Cl)C(c2ccccc2)c2cc(Cl)ccc21 (stereo not shown) [Example 31, 1-Methyl-4-(o-chlorobenzoyl)-5-phenyl-7-chloro-1,3,4,5-tetrahydro-2H-1,4-benzodiazepine-2-one]	20	> 1600	85	14	–
CCCCNC(=O)N1CC(=O)Nc2ccc([N+](=O)[O-])cc2C1c1ccccc1 (stereo not shown) [Example 18, 4-n-Butylcarbamoyl-5-phenyl-7-nitro-1,3,4,5-tetrahydro-2H-1,4-benzodiazepine-2-one]	20	320	77	14	–
CN1C(=O)CN(C(N)=O)C(c2ccccc2)c2cc(Cl)ccc21 (single isomer, unassigned; (-)) [Example 56, (-)-1-Methyl-4-carbamoyl-5-phenyl-7-chloro-1,3,4,5-tetrahydro-2H-1,4-benzodiazepine-2-one]	–	–	112	–	Anti-electroshock ED50 ip. ([1]; screen test, i.p., 60 min): 8.4 mg/kg; LD50 i.p. ([11]; i.p., death rate observed for one week, 10080 min): 661.2 mg/kg; Rotarod ED50 ([7]; screen test, i.p., 1 hour before test, 60 min): 13.0 mg/kg; Antimetrazole ED50 ([5]; screen test, i.p., 1 hour before test, metrazole 125 mg./kg. s.c., 60 min): 2.2 mg/kg
CN1C(=O)CN(C(N)=O)C(c2ccccc2)c2cc(Cl)ccc21 (single isomer, unassigned; (+)) [Example 55, (+)-1-Methyl-4-carbamoyl-5-phenyl-7-chloro-1,3,4,5-tetrahydro-2H-1,4-benzodiazepine-2-one]	10	611	368	1.65	TD50 at 1 h [3, 14]: 7 mg/kg
CNC(=O)N1CC(=O)Nc2ccc([N+](=O)[O-])cc2C1c1ccccc1 (stereo not shown) [Example 14, 4-Methylcarbamoyl-5-phenyl-7-nitro-1,3,4,5-tetrahydro-2H-1,4-benzodiazepine-2-one]	20	936	75	19.5	–
CC(=O)N1CC(=O)N(C)c2ccc(Cl)cc2C1c1ccccc1 (stereo not shown) [Example 28, 1-Methyl-4-acetyl-5-phenyl-7-chloro-1,3,4,5-tetrahydro-2H-1,4-benzodiazepine-2-one]	20	312	125	7	–
CN1C(=O)CN(C(N)=O)C(c2ccccc2)c2cc(Cl)ccc21 (racemic) [Compound "A", 1-methyl-4-carbamoyl-5-phenyl-7-chloro-1,3,4,5-tetrahydro-2H-1,4-benzodiazepine-2-one]	–	–	–	–	ED50 [6]: 8.8 mg/kg; Narcosis potentiation ED50 : Antimetrazole ED50 [6]: 13.3; ED50 [1, 16]: 19.3 mg/kg; sedative and muscle relaxant effects compared with Diazepam [12]: provokes muscle relaxation and sedation only in higher dosages; also recorded: much lower; relation of the effects to those of the reference substances ([12]; vs Chlorodiazepoxide and Diazepam): more closely related to those of Chlorodiazepoxide than of Diazepam; dosages provoking muscle incoordination, muscle relaxation, and narcosis potentiation in relation to the dosage provoking anticonvulsive effect ([12]; vs reference substances Diazepam and Chlorodiazepoxide): clearly more advantageous than the reference substances; LD50 at 168 h [2, 17]: 1680 mg/kg; therapeutic index compared with Diazepam ([11]; in words): more favourable; TD50 at 1 h [3, 18]: 6.7 mg/kg; Rotarod ED50 : Antimetrazole ED50 [7]: 10.2; ED50 [8]: 26 mg/kg; Antistrychnine ED50 : Antimetrazole [8]: 39.4; ED50 [5, 19]: 0.66 mg/kg; tetrachor spasm inhibiting effect / anticonvulsive effect compared with Diazepam ([5]; in words, vs Diazepam): practically identical to that of Diazepam; animals protected against metrazole spasm ([5]; single intravenous dosage of 5 mg./kg., 7 hours after administration): 50%; ED50 [9]: 1400 mg/kg; TD50 at 1 h [10]: 26.9 mg/kg
CN1C(=O)CN(C=O)C(c2ccccc2)c2cc(Cl)ccc21 (stereo not shown) [Example 33, 1-Methyl-4-formyl-5-phenyl-7-chloro-1,3,4,5-tetrahydro-2H-1,4-benzodiazepine-2-one]	14	688	110	3.4	TD50 at 1 h [3, 14]: 23 mg/kg
